Source: ChEMBL document CHEMBL1201862, “PubChem BioAssay data set” (2004)
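Where inhibition never reached the appropriate level, the endpoint shown equals the highest concentration tested. Otherwise, values were interpolated linearly from a five-concentration, 48-hour dose response in 96-well plates. GI50: concentration for 50% inhibition of growth.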 Calls of active or inactive are those of the source. No stated cut-off is given here; in the data, active = GI50 up to about 1.1 µM and inactive = higher.

Key:
Assay in all cases: growth of human tumour cells (NCI), 48 h
IGROV-1 = tested on: IGROV-1
UACC-257 = tested on: UACC-257
SF-268 = tested on: SF-268
SF-295 = tested on: SF-295
SF-539 = tested on: SF-539
HCT-116 = tested on: HCT-116
HL-60 = tested on: HL-60
KM12 = tested on: KM12
NCI-H23 = tested on: NCI-H23
SK-MEL-5 = tested on: SK-MEL-5
SW-620 = tested on: SW-620
MOLT-4 = tested on: MOLT-4
RPMI-8226 = tested on: RPMI-8226
COLO 205 = tested on: COLO 205
PC-3 = tested on: PC-3
BT-549 = tested on: BT-549
OVCAR-3 = tested on: OVCAR-3
UO-31 = tested on: UO-31
MDA-N = tested on: MDA-N
NCI/ADR-RES = tested on: NCI/ADR-RES
HCC 2998 = tested on: HCC 2998
SNB-75 = tested on: SNB-75
NCI-H522 = tested on: NCI-H522
ACHN = tested on: ACHN
MDA-MB-231 = tested on: MDA-MB-231
HOP-62 = tested on: HOP-62
EKVX = tested on: EKVX
A498 = tested on: A498
RXF 393 = tested on: RXF 393
DU-145 = tested on: DU-145
T47D = tested on: T47D
SN12C = tested on: SN12C
NCI-H226 = tested on: NCI-H226
MDA-MB-435 = tested on: MDA-MB-435
OVCAR-4 = tested on: OVCAR-4
NCI-H460 = tested on: NCI-H460
K562 = tested on: K562
786-0 = tested on: 786-0
SR = tested on: SR
CCRF-CEM = tested on: CCRF-CEM
TK-10 = tested on: TK-10
SNB-19 = tested on: SNB-19
MCF7 = tested on: MCF7
M14 = tested on: M14
Malme-3M = tested on: Malme-3M
LOX IMVI = tested on: LOX IMVI
SK-OV-3 = tested on: SK-OV-3
A549 = tested on: A549
OVCAR-8 = tested on: OVCAR-8
HCT-15 = tested on: HCT-15
U-251 = tested on: U-251
HT-29 = tested on: HT-29
OVCAR-5 = tested on: OVCAR-5
SK-MEL-2 = tested on: SK-MEL-2
SK-MEL-28 = tested on: SK-MEL-28
HOP-92 = tested on: HOP-92
CAKI-1 = tested on: CAKI-1
Hs-578T = tested on: Hs-578T
UACC-62 = tested on: UACC-62

Compound: COc1ccc(/N=N/c2ccc3oc(=O)c(C(=O)Nc4ccc(OC)cc4)cc3c2)cc1
- GI50 (IGROV-1): 16.1 µM (inactive)
- GI50 (UACC-257): 23.8 µM (inactive)
- GI50 (SF-268): 9.02 µM (inactive)
- GI50 (SF-295): 21.3 µM (inactive)
- GI50 (SF-539): 6.95 µM (inactive)
- GI50 (HCT-116): 11.2 µM (inactive)
- GI50 (HL-60): 5.69 µM (inactive)
- GI50 (KM12): 13.8 µM (inactive)
- GI50 (NCI-H23): 17.4 µM (inactive)
- GI50 (SK-MEL-5): 14.9 µM (inactive)
- GI50 (SW-620): 18.2 µM (inactive)
- GI50 (MOLT-4): 6.15 µM (inactive)
- GI50 (RPMI-8226): 16.3 µM (inactive)
- GI50 (COLO 205): 20.8 µM (inactive)
- GI50 (PC-3): 11 µM (inactive)
- GI50 (BT-549): 4.93 µM (inactive)
- GI50 (OVCAR-3): 19.2 µM (inactive)
- GI50 (UO-31): 14 µM (inactive)
- GI50 (MDA-N): 25.5 µM (inactive)
- GI50 (NCI/ADR-RES): 16.2 µM (inactive)
- GI50 (HCC 2998): 19.4 µM (inactive)
- GI50 (SNB-75): 16.2 µM (inactive)
- GI50 (NCI-H522): 26.5 µM (inactive)
- GI50 (ACHN): 18.2 µM (inactive)
- GI50 (MDA-MB-231): 23.5 µM (inactive)
- GI50 (HOP-62): 13.9 µM (inactive)
- GI50 (EKVX): 28.5 µM (inactive)
- GI50 (A498): 2.77 µM (inactive)
- GI50 (RXF 393): 27 µM (inactive)
- GI50 (DU-145): 15.6 µM (inactive)
- GI50 (T47D): 4.23 µM (inactive)
- GI50 (SN12C): 14 µM (inactive)
- GI50 (NCI-H226): 13.1 µM (inactive)
- GI50 (MDA-MB-435): 16.7 µM (inactive)
- GI50 (OVCAR-4): 13.4 µM (inactive)
- GI50 (NCI-H460): 20.4 µM (inactive)
- GI50 (K562): 18.1 µM (inactive)
- GI50 (786-0): 14.1 µM (inactive)
- GI50 (SR): 12 µM (inactive)
- GI50 (CCRF-CEM): 4.89 µM (inactive)
- GI50 (TK-10): 22.4 µM (inactive)
- GI50 (SNB-19): 22.5 µM (inactive)
- GI50 (MCF7): 16.1 µM (inactive)
- GI50 (M14): 16.9 µM (inactive)
- GI50 (Malme-3M): 18.6 µM (inactive)
- GI50 (LOX IMVI): 3.71 µM (inactive)
- GI50 (SK-OV-3): 19.5 µM (inactive)
- GI50 (A549): 31.4 µM (inactive)
- GI50 (OVCAR-8): 14.3 µM (inactive)
- GI50 (HCT-15): 6.79 µM
- GI50 (U-251): 13.4 µM (inactive)
- GI50 (HT-29): 22.6 µM (inactive)
- GI50 (OVCAR-5): 17.8 µM (inactive)
- GI50 (SK-MEL-2): 14 µM (inactive)
- GI50 (SK-MEL-28): 15.6 µM (inactive)
- GI50 (HOP-92): 18.4 µM (inactive)
- GI50 (CAKI-1): 25.6 µM (inactive)
- GI50 (Hs-578T): 20.9 µM (inactive)

Compound: COC(=O)C1(C)CCCC2(C)C3CCC4CC3(C=C4CO)CCC12 (centres undefined)
- GI50 (IGROV-1): > 100 µM (inactive)
- GI50 (UACC-257): 41.9 µM (inactive)
- GI50 (SF-268): 37.8 µM (inactive)
- GI50 (SF-295): 60.4 µM (inactive)
- GI50 (SF-539): 32.1 µM (inactive)
- GI50 (HCT-116): 30.6 µM (inactive)
- GI50 (HL-60): 20.6 µM (inactive)
- GI50 (NCI-H23): 38.1 µM (inactive)
- GI50 (SK-MEL-5): 37.2 µM (inactive)
- GI50 (SW-620): 69.2 µM (inactive)
- GI50 (MOLT-4): 27.8 µM (inactive)
- GI50 (RPMI-8226): 24.9 µM (inactive)
- GI50 (COLO 205): 74.8 µM (inactive)
- GI50 (PC-3): 33.1 µM (inactive)
- GI50 (BT-549): 49.3 µM (inactive)
- GI50 (OVCAR-3): 42.1 µM (inactive)
- GI50 (UO-31): 32.9 µM (inactive)
- GI50 (MDA-N): 46.7 µM (inactive)
- GI50 (NCI/ADR-RES): 24.4 µM (inactive)
- GI50 (HCC 2998): 39.6 µM (inactive)
- GI50 (SNB-75): 37.2 µM (inactive)
- GI50 (NCI-H522): 34.2 µM (inactive)
- GI50 (ACHN): 41 µM (inactive)
- GI50 (MDA-MB-231): 73.5 µM (inactive)
- GI50 (HOP-62): 75 µM (inactive)
- GI50 (EKVX): 41.2 µM (inactive)
- GI50 (A498): 87.9 µM (inactive)
- GI50 (RXF 393): 56.4 µM (inactive)
- GI50 (DU-145): > 100 µM (inactive)
- GI50 (T47D): 34.4 µM (inactive)
- GI50 (SN12C): 20.3 µM (inactive)
- GI50 (NCI-H226): 53.2 µM (inactive)
- GI50 (MDA-MB-435): 83.2 µM (inactive)
- GI50 (OVCAR-4): 68.2 µM (inactive)
- GI50 (786-0): 43.4 µM (inactive)
- GI50 (UACC-62): > 100 µM (inactive)
- GI50 (SR): 27.6 µM (inactive)
- GI50 (CCRF-CEM): 41.7 µM (inactive)
- GI50 (TK-10): 91.6 µM (inactive)
- GI50 (SNB-19): 28.2 µM (inactive)
- GI50 (MCF7): 22.8 µM (inactive)
- GI50 (M14): 93.8 µM (inactive)
- GI50 (Malme-3M): 27 µM (inactive)
- GI50 (LOX IMVI): 20.7 µM (inactive)
- GI50 (SK-OV-3): > 100 µM (inactive)
- GI50 (A549): > 100 µM (inactive)
- GI50 (OVCAR-8): 36.9 µM (inactive)
- GI50 (HCT-15): 17.4 µM
- GI50 (U-251): 57.4 µM (inactive)
- GI50 (HT-29): 16.2 µM (inactive)
- GI50 (OVCAR-5): > 100 µM (inactive)
- GI50 (SK-MEL-2): 82.4 µM (inactive)
- GI50 (SK-MEL-28): 66.7 µM (inactive)
- GI50 (HOP-92): 55.1 µM (inactive)
- GI50 (CAKI-1): 43.8 µM (inactive)
- GI50 (Hs-578T): > 100 µM (inactive)
